The subject of one test is 293T-HRE-GFP-luc cells. Nature of the test: Cell-based reporter assay for IC50 determinations. The settings on record: hypoxia 6 hrs (1% O2), luminescence, read-out: IC50 Classification. Put shortly:
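Cells carrying an HRE-driven GFP-luciferase reporter, seeded at 12,000/well and held overnight, then given 1:3 serial compound dilutions (DMSO, further diluted 1:50 in medium). After 30 min in normoxia, plates held 6 h in hypoxia (1% O2, 37 °C); luciferase luminescence read, IC50 by four-parameter logistic fit.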
(In general: In a reporter assay the amount or activity of a reporter protein is the signal.)

Another test relates to NB-1 cells. Nature of the test: Neuroblastoma cellular assay, cell numbers. It counts as cell-based. The settings on record: various concentrations. From the text: (§1) NB-1, Gli56, and D423 cell lines are deleted for ENO-1 (GLI56 and D423) or PGD, which renders them with reduced glycolytic capacity (Muller, F. et al., Nature, 2012, 488, 337-42).
A further test relates to D423 cells. Nature of the test: Glioblastoma cellular assay, cell numbers. The format is cell-based. The following applies: various concentrations.
Excerpt: as §1

The next test concerns Gli56 cells. Nature of the test: Glioblastoma cellular assay, cell numbers. The settings on record: various concentrations. The format is cell-based.
Excerpt: as §1

The next test has as its system H460 xenografts. Nature of the test: H460 non-small cell lung cancer xenograft model. It counts as in vivo, mice. The method, then: H460 cells were implanted subcutaneously in CD-1 nude mice and treated with 150 mpk qdx14 PO of the compound of Example 2 delivered by oral gavage for 14 days. Animals were randomized into study groups and the study initiated when the average tumor volume was 400 mm^3. During treatment, tumor volume was measured three times per week to determine tumor growth over the course of the study (FIG. 6). Nine tumor bearing mice were included in each group. On day 15, 3 hours prior to take down, hypoxyprobe (Hypoxyprobe, Inc. cat # HP3) was injected into mice. Tumor sections were stained (dark areas) for the level of hypoxia utilizing an anti-hypoxyprobe antibody and standard IHC methods (FIG. 7). The same tumors were stained for the expression of HIF regulated gene carbonic anhydrase IX (CA9) using standard IHC methods (FIG. 8).

The test system of a further test is TMD8 cells. Nature of the test: Diffuse large B-cell lymphoma (DLBCL) assay, viable cells. It counts as cell-based. The settings on record: varying concentrations, 7 days, Guava ViaCount. The method, then:
Diffuse Large B-Cell Lymphoma (DLBCL) Assay
Equal number of TMD8 cells were plated and treated with varying concentrations of the compound of Example 80 for 7 days. Percent of viable cells was determined using Guava ViaCount reagents (EMD Millipore cat #4000-0040) that contains proprietary dyes that enable the determination of the number of live and dead cells in a sample (FIG. 1).

For the next test, the system named is OCI-AML3 cells. Nature of the test: Acute myeloid leukemia cell viability. The format is cell-based. The following applies: various concentrations, 2 days, normalized to DMSO control. The method, then: (§2) The OCI-AML3 cell line was treated with various concentrations of compound for 2 days and the percent of viable cells normalized to control cells treated with DMSO (FIG. 9). OCI-AML3 cells constitutively expressing luciferase were tail vein injected in NSG nude mice. 17 days after cell injection, luciferin was injected into animals and luciferase signal was measured using an IVIS imaging system to determine tumor burden and for randomization of subjects into study groups. On day 18, animals began receiving daily oral doses of vehicle or 10 mpk of the compound of Example 80 which continued throughout the study. On day 28, imaging was performed again to determine tumor burden (FIG. 10).

The test system of test [1] is OCI-AML3 models in NSG mice. Nature of the test: Human leukemia model, OCI-AML3 in NSG mice. The settings on record: 10 mg/kg daily oral. The format is in vivo. The method, then: as §2
The test system of a further test is NB-1 xenografts. Nature of the test: NB-1 xenograft model. It counts as in vivo. The settings on record: daily oral 10 mg/kg (b1183 says 40 mpk), CD-1 nude mice. The method, then:
To establish activity and provide in vivo proof of concept, NB-1 cells were implanted into CD-1 nude mice and treated with 40 mpk of the compound of Example 80 po or vehicle daily when tumors reached 400-500 mm^3. Tumor size was measured 3×/week using caliper measurements (FIG. 5).

“Also recorded” adds a separate entry of the source. Bounds are passed on as bounds.

Regarding `Cc1nc(-c2nc(-c3ccc(OC(F)(F)F)cc3)no2)nn1Cc1ccnc(N2CCN(C)CC2)c1` [Example 2, 5-(5-Methyl-1-((2-(4-methylpiperazin-1-yl)pyridin-4-yl)methyl)-1H-1,2,4-triazol-3-yl)-3-(4-(trifluoromethoxy)phenyl)-1,2,4-oxadiazole], the IC50 (commonly the concentration at which inhibition is half-maximal) in the test with 293T-HRE-GFP-luc cells was < 100 nM. Besides, in the test with NB-1 cells, the “cell death in NB-1 cells” value is listed as “readily apparent” and the “number of viable NB-1 cells” value was “significantly reduced; also recorded: reduced number of viable cells”. Besides, in the test with D423 cells, the “number of viable D423 cells” value is reported as “significantly reduced; also recorded: reduced number of viable cells”. In addition, in the test with Gli56 cells, the “cell death in Gli56 cells” value was “readily apparent” and the “number of viable Gli56 cells” value was “significantly reduced”. For the same compound, the “tumor growth of H460 xenografts” value in the test with H460 xenografts (150 mg/kg daily oral for 14 days, CD-1 nude mice) is recorded as “inhibited the growth; also recorded: reduces the tumor growth”. Further, in the test on H460 xenografts (150 mg/kg daily oral, day 15), the “level of HIF regulated gene carbonic anhydrase IX (CAIX/CA9) in H460 xenografts (IHC)” value is “elimination of hypoxia and CA9 protein expression; also recorded: reduce the level of CAIX”; the “level of hypoxia in H460 xenografts (hypoxyprobe IHC)” value is recorded as “elimination of hypoxia; also recorded: reduce the level of hypoxia”.
As to `Cc1nc(-c2nc(-c3ccc(OC(F)(F)F)cc3)no2)nn1Cc1cccc(N2CCC(S(C)(=O)=O)CC2)c1` [Example 80, 4-Methanesulfonyl-1-{3-[(5-methyl-3-{3-[4-(trifluoromethoxy)phenyl]-1,2,4-oxadiazol-5-yl}-1H-1,2,4-triazol-1-yl)methyl]phenyl}piperidine], in the test on 293T-HRE-GFP-luc cells, the IC50 is < 100 nM. Moreover, in the test on TMD8 cells, the “number/percent of viable TMD8 cells” value is listed as “respond robustly; also recorded: reduced number of viable cells”. Besides, in the test on NB-1 cells, the “cell death in NB-1 cells” value is reported as “readily apparent” and the “number of viable NB-1 cells” value was “significantly reduced; also recorded: reduced number of viable cells”. Besides, the “number of viable D423 cells” value in the test with D423 cells was “significantly reduced; also recorded: reduced number of viable cells”. In the test with Gli56 cells, the “cell death in Gli56 cells” value was “readily apparent” and the “number of viable Gli56 cells” value is given as “significantly reduced; also recorded: reduced number of viable cells”. In addition, the “number of viable OCI-AML3 cells” value in the test on OCI-AML3 cells is listed as “reduced number of viable cells”. Also, the “disease burden (tumor burden) by IVIS imaging” value in test [1] is reported as “reduces disease burden”. Also, in [1] (relative to vehicle), the survival entry is on record as “significantly increased their survival; also recorded: extends survival”. Further, in the test with NB-1 xenografts, the “tumor growth of NB-1 xenografts” value is reported as “reduces the tumor growth”.

The values above are taken from patent US10208059B2, “Heterocyclic modulators of HIF activity for treatment of disease” (Board of Regents, University of Texas System, priority 2012, dated 2019).
